Here are results for 18 compounds from patent US20170275302A1, “INHIBITORS OF THE RENAL OUTER MEDULLARY POTASSIUM CHANNEL” (Merck Sharp & Dohme Corp., priority 2014, published 2017).

Each structure is given as a SMILES string.

The experiment concerns the target T1, hROMK (hKir1.1) (Homo sapiens, UniProt P48048).
T1 construct: expressed in transfected cells
T1 sequence (P48048 1-391): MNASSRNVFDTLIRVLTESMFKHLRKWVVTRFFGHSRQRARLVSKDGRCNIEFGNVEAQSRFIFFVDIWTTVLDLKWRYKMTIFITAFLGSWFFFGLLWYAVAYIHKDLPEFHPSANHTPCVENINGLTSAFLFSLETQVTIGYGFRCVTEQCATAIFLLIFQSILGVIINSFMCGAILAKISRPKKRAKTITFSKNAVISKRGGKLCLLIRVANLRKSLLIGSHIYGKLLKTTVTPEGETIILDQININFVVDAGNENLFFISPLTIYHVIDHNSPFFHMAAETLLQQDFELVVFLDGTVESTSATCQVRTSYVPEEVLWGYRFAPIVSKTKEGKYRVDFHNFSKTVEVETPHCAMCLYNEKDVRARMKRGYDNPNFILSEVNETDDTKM
Description: Thallium Flux Assay (ROMK channel functional thallium flux assay, FLIPR-Tetra). The format is cell-based. The conditions noted are these: HEK293 cells stably expressing hROMK (hKir1.1); FluxOR thallium flux, 30 min compound incubation; concentration inhibiting 50% of ROMK thallium flux signal. On the procedure:
The following Thallium Flux Assay was performed on each of the final product compounds in the Examples.
HEK293 cells stably expressing hROMK (hKir1.1) were grown at 37° C. in a 10% CO2 humidified incubator in complete growth media: Dulbecco's Modified Eagle Medium supplemented with non-essential amino acids, Penicillin/Streptomycin/Glutamine, G418 and FBS. At >80% confluency, the media was aspirated from the flask and rinsed with 10 mL calcium/magnesium-free phosphate buffered saline (PBS). 5 mL of 1× trypsin (prepared in Ca/Mg Free PBS) was added to T-225 flask and the flask was returned to 37° C./CO2 incubator for 2-3 minutes. To dislodge the cells, the side of the flask was gently banged with one's hand. The cells were completely titrated and then the cells were transferred to 25 mL complete media, centrifuged at 1,500 rpm for 6 min followed by resuspension in complete growth media, and the cell concentration was determined. For typical re-seeding, 4E6 cells/T-225 flask will attain >80% confluency in 4 days. Under ideal growth conditions and appropriate tissue culture practices, this cell line is stable for 40-45 passages.
Compound Buffer (per microplate): 20 mL Probenecid/Assay Buffer; 0.3 mM ouabain (10 mM ouabain in water can be stored in amber bottle/aluminum foil at room temperature); Test compound
Stimulant Buffer (prepared at 5× final concentration in 1× FluxOR™Chloride-Free Buffer): 7.5 mM thallium sulfate and 0.75 mM potassium sulfate (to give a final assay concentration of 3 mM Thallium/0.3 mM potassium). Store at 4° C. when not in use. If kept sterile, this solution is good for months.
The ROMK channel functional thallium flux assay was performed in 384 wells, using the FLIPR-Tetra instrument. HEK-hKir1.1 cells were seeded in Poly-D-Lysine microplates and kept in a 37° C.-10% CO2 incubator overnight. On the day of the experiment, the growth media was replaced with the FluxOR™ reagent loading buffer and incubated, protected from light, at ambient temperature (23-25° C.) for 90 min. The loading buffer was replaced with assay buffer±test compound followed by 30 min incubation at ambient temperature, where the thallium/potassium stimulant was added to the microplate.
• 1. Seed HEK-hKir1.1 cells (50 μl at 20,000 cells/well) in 384-well PDL coated Microplates • 2. Allow cells to adhere overnight in humidified 37° C./10% CO2 incubator • 3. Completely remove cell growth media from microplate and replace with 25 μl loading buffer • 4. Incubate Microplate at room temperature, protected form light, for 90 min • 5. Remove loading buffer and replace with 25 μl 1× Assay Buffer±test compound. • 6. Incubate microplate at room temperature, protected from light, for 30 min • 7. At FLIPR-Tetra 384: Add stimulant (thallium/potassium) solution to microplate and monitor fluorescence. Excitation=400 nm, Emission=460 & 580 nm. Collect data for ˜10 min.
The fluorescence intensity of wells containing 3 μM of a standard control ROMK inhibitor of the present invention was used to define the ROMK-sensitive component of thallium flux. Fluorescence in the presence of test compounds was normalized to control values to provide % fluorescence change. IC50 values represent the concentration of compound that inhibited 50% of the ROMK thallium flux signal.
The term IC50 denotes the concentration at which inhibition is half-maximal. High values mean a need for much substance, low ones inhibition by little substance. On to `COc1cc2ccc(N3CCC4(CCN(C[C@H](O)c5ccc6c(c5C)COC6=O)CC4)C3=O)nc2cn1` [Example 33], for which inhibition was half-maximal at 284 nM (IC50). In turn, `Cc1c([C@@H](O)CN2CCC3(CC2)CCN(c2ccc4nnc(C5CC5)n4n2)C3)ccc2c1COC2=O` [Example 14] showed an IC50 of 204 nM. Compound `Cc1c([C@@H](O)CN2CCC3(CC2)CCN(c2cnc4snnc4c2)C3)ccc2c1COC2=O` [Example 29, (R)-5-(2-(2-([1,2,3]thiadiazolo[5,4-b]pyridin-6-yl)-2,8-diazaspiro[4.5]decan-8-yl)-1-hydroxyethyl)-4-methylisobenzofuran-1(3H)-one] yielded an IC50 of 301 nM. The IC50 values of the last two compounds are within 1.5-fold of each other. The same measure for `Cc1c([C@@H](O)CN2CCC3(CC2)CCN(c2ccc4sccc4n2)C3=O)ccc2c1COC2=O` [Example 34]: 427 nM; for `Cc1c([C@@H](O)CN2CCC3(CC2)CCN(c2ccc4nncn4n2)C3)ccc2c1COC2=O` [Example 5, (R)-5-(2-(2-([1,2,4]triazolo[4,3-b]pyridazin-6-yl)-2,8-diazaspiro[4.5]decan-8-yl)-1-hydroxyethyl)-4-methylisobenzofuran-1 (3H)-one]: 74.7 nM.

In the case of `COc1cc([C@@H](F)CN2CCC3(CC2)CCN(c2ccc4nncn4n2)C3)ncc1C#N` [Example 21], the IC50 turned out to be 236 nM.

The compound `COc1cc([C@@H](O)CN2CCC3(CC2)CCN(c2ccc4nncn4n2)C3=O)ncc1C#N` [Example 75] registered an IC50 of 608 nM. For the compound `N#Cc1ccc(C(O)CN2CCC3(CCN(c4ccc5nncn5n4)CC3)C2)nc1` (stereo not drawn) [Example 62], it took 129 nM to reach half-maximal inhibition (IC50).

Take `N#Cc1ccc(C(O)CN2CCC3(CCN(c4ccc5nncn5n4)CC3)C2)nc1` (stereo not drawn) [Example 63]: the IC50 turned out to be 154 nM. As to `COc1cc([C@@H](O)CN2CCC3(CC2)CCN(c2ccc4nncn4c2)C3)ncc1C#N` [Example 73], it took 221 nM to reach half-maximal inhibition (IC50). With `Cc1c([C@@H](O)CN2CCC3(CC2)CCN(c2ccc4nonc4n2)C3)ccc2c1COC2=O` [Example 95, (R)-5-(2-(2-([1,2,5]oxadiazolo[3,4-b]pyridin-5-yl)-2,8-diazaspiro[4.5]decan-8-yl)-1-hydroxyethyl)-4-methylisobenzofuran-1(3H)-one], the IC50 stood at 19.2 nM. The compound `Cc1c([C@@H](O)CN2CCC3(CC2)CN(c2ccc4c(c2C)COC4=O)C(=O)O3)ccc2c1COC2=O` [Example 81, (R)-8-(2-hydroxy-2-(4-methyl-1-oxo-1,3-dihydroisobenzofuran-5-yl)ethyl)-3-(4-methyl-1-oxo-1,3-dihydroisobenzofuran-5-yl)-1-oxa-3,8-diazaspiro[4.5]decan-2-one] showed an IC50 of 91.4 nM. `Cc1c([C@@H](O)CN2CCC3(CC2)CCN(c2nc4c(S(N)(=O)=O)cccc4s2)C3)ccc2c1COC2=O` [Example 6] registered an IC50 of 304 nM. `Cc1c([C@@H](O)CN2CCC3(CC2)CCN(c2ccc4nnc(-c5ccco5)n4n2)C3)ccc2c1COC2=O` [Example 13] registered an IC50 of 411 nM. This IC50 and that of the compound before are within 1.5-fold of each other. The same measure for `OC(CN1CCC2(CCN(c3ccc4nncn4n3)CC2)C1)c1ccc(-n2cnnn2)nc1` (racemic) [Example 69]: 72.6 nM; for `Cc1nc(C(O)CN2CCC3(CC2)CCN(c2ccc4nncn4n2)C3)ccc1C#N` (stereo not drawn) [Example 46, 6-(2-(2-([1,2,4]triazolo[4,3-b]pyridazin-6-yl)-2,8-diazaspiro[4.5]decan-8-yl)-1-hydroxyethyl)-2-methylnicotinonitrile]: 77 nM; for `Cc1c([C@@H](O)CN2CCC3(CC2)CCN(c2ccn4nncc4c2)C3=O)ccc2c1COC2=O` [Example 88, (R)-2-([1,2,3]triazolo[1,5-a]pyridin-5-yl)-8-(2-hydroxy-2-(4-methyl-1-oxo-1,3-dihydroisobenzofuran-5-yl)ethyl)-2,8-diazaspiro[4.5]decan-1-one]: 29.2 nM. `N#Cc1ccc(C(O)CN2CCC3(CC2)CCN(c2ccc4nncn4n2)C3)nc1` (stereo not drawn) [Example 43] came in with an IC50 of 361 nM.
